Results on 1 compound are retold here after patent US5663205A, “Pharmaceutical composition for use in glaucoma treatment” (Senju Pharmaceutical Co. Ltd., priority 1992, dated 1997).

The subject of data set [1] is Normal Intraocular Pressure. In words: Test Example 2 (1): intraocular pressure reducing activity on normal intraocular pressure, pigmented rabbits. Format: in vivo, pigmented rabbits (Dutch belted rabbits). As to the method:
Intraocular Pressure Reducing Activity of Amosulalol Hydrochloride on Normal Intraocular Pressure in Pigmented Rabbits Forty (40) male pigmented rabbits (Dutch belted rabbits) weighing about 2 kg, after having been confirmed to be free from ocular abnormalities, were bred in a breeding room maintained at a temperature of 24± 4° C. and at a relative humidity of 55± 15%, while they were fed solid food (Labo RG-RO, manufactured by Nihon Nohsan Kogyo K.K.) at a daily rate of 100 g per rabbit and allowed free access to tap water as drinking water. As a test drug, amosulalol hydrochloride was processed into 0.05%, 0.5% and 1.0% aqueous solutions which were used in the test, and 0.5% timolol maleate ophthalmic solution [Timoptol (registered trademark): Ban-yu Pharmaceutical Co.] and physiological saline were used as a positive control drug and a control substance, respectively. (1) Measurement of intraocular pressure: Forty (40) rabbits were divided into five groups. each consisting of 8 heads, and 50 μl of test drug as well as the control drug and physiological saline were applied topically to one eye each of the individual rabbits, with the other being left untreated. Before instillation and 0.5, 1, 2, 3, 4, 6 and 8 hours after topical application respectively, intraocular pressure for both eyes of each rabbit was measured using PTG. Time-course changes of intraocular pressure measurements taken with the eyes treated by instillation of each of the test drugs, control drug and physiological saline, are illustrated in FIGS. 2 (for treated eyes) and 3 (for non-treated eyes), respectively, with time (hour) after instillation taken as abscissa and intraocular pressure (mmHg) as ordinate; each value in mean ± S.E. (the number in each case is 8). The signs "a", "b", "c", "d" and "e" designate physiological saline, 0.05% aqueous solution of amosulalol hydrochloride, 0.5% aqueous solution of amosulalol hydrochloride, 1.0% aqueous solution of amosulalol hydrochloride and 0.5% solution of timolol maleate, respectively.

Data set [2] in a line: Test Example 6: freeze-thaw test, precipitation of crystals. Format: physicochemical. The following applies: 0.5% aqueous solution (pH 5.5), left standing at room temperature. As to the method:
Investigation on the Processing of Amosulalol Hydrochloride into Ophthalmic Solution: Freeze-Thaw Test (Investigation on a Stabilizing Agent for the Ophthalmic Solution of Amosulalol Hydrochloride)
Consequently, investigation was conducted on a stabilizing agent intended for use in the case of such freezing.
0.5% aqueous solution of amosulalol hydrochloride (pH 5.5), after being admixed with each of the stabilizing agents (Nos. 1 to 5) as described in Table 1 shown below, was filled into a glass ampoule of 5 ml capacity, frozen at -30° C. and left standing at room temperature to conduct inspection for the presence of crystals in it.

Data set [3] in a line: Stability of aqueous solution against heat and light. It is filed as physicochemical.
Data set [4] in a line: Test Example 7 (2)(a),(b): general conditions and body weight, 28 days instillation. It is filed as in vivo, Japanese white rabbits. The following applies: 1% and 0.5% ophthalmic solutions, 4 times a day. How it is done:
(2) Ocular local toxicity test in rabbits of 1.0% and 0.5% ophthalmic solutions of amosulalol hydrochloride by consecutive instillation for 28 days: With 15 male Japanese white rabbits divided into 3 groups each consisting of 5 rabbits, 1.0% and 0.5% ophthalmic solutions of amosulalol hydrochloride as well as physiological saline as a control were applied in one drop (0.05 ml) per time to the right eye of each rabbit alone, four times a day at a regular interval of 2.5 hours, for 28 days consecutively with the left eye being left untreated. (a) General conditions; Observation was made on the […] for general conditions once a week. (b) Body weight measurement; Body weight was measured once a week.

The test system of data set [5] is corneal epithelial and endothelial cells. In words: Test Example 7 (2)(e): scanning electron microscope evaluation of corneal epithelial and endothelial cells. The following applies: 1% and 0.5% ophthalmic solutions, 28 days. Format: in vivo, Japanese white rabbits. How it is done:
(2) Ocular local toxicity test in rabbits of 1.0% and 0.5% ophthalmic solutions of amosulalol hydrochloride by consecutive instillation for 28 days: With 15 male Japanese white rabbits divided into 3 groups each consisting of 5 rabbits, 1.0% and 0.5% ophthalmic solutions of amosulalol hydrochloride as well as physiological saline as a control were applied in one drop (0.05 ml) per time to the right eye of each rabbit alone, four times a day at a regular interval of 2.5 hours, for 28 days consecutively with the left eye being left untreated. (e) Evaluation with a scanning electron microscope of corneal epithelial and endothelial cells; After completion of the instillation of 1.0% and 0.5% ophthalmic solutions of amosulalol hydrochloride, morphological observation was done on corneal epithelial and endothelial cells in 3 eyes each of the two groups.

Another data set deals with eyeball. Put plainly: Test Example 7 (2)(f): optical microscope evaluation of a sagittal section of the eyeball. It is filed as in vivo, Japanese white rabbits. The conditions noted are these: 1% and 0.5% ophthalmic solutions, 28 days. As to the method:
(2) Ocular local toxicity test in rabbits of 1.0% and 0.5% ophthalmic solutions of amosulalol hydrochloride by consecutive instillation for 28 days:
With 15 male Japanese white rabbits divided into 3 groups each consisting of 5 rabbits, 1.0% and 0.5% ophthalmic solutions of amosulalol hydrochloride as well as physiological saline as a control were applied in one drop (0.05 ml) per time to the right eye of each rabbit alone, four times a day at a regular interval of 2.5 hours, for 28 days consecutively with the left eye being left untreated.
(f) Evaluation with an optical microscope of a sagittal section of the eyeball;
After completion of the instillation of 1.0% and 0.5% ophthalmic solutions of amosulalol hydrochloride, specimens for optical microscopy were prepared each having a sagittal section of the eyeball from 2 eyes each of the two groups to conduct microscopic examination of the eyelid, conjunctiva, cornea, anterior segment, iris, crystalline lens vitreous body, retinochoroid membrane, screla and optic nerve.

In another data set the test system is β-adrenergic. The conditions noted are these: cited from earlier work.

Regarding `COc1ccccc1OCCNCC(O)c1ccc(C)c(S(N)(=O)=O)c1.Cl` (centres unmarked) [amosulalol hydrochloride, 5-[1-hydroxy-2-[2-(2-methoxyphenoxy)ethylamino]ethyl]-2-methylbenzenesulfonamide hydrochloride], the “maximum drop in intraocular pressure” value in data set [1] (0.05% aqueous solution, treated eyes, 2 hours after instillation) worked out at 3.6 mmHg. For the same compound, the “intraocular pressure reducing activity compared with 0.5% timolol maleate ophthalmic solution” value in data set [1] (0.05%, normal eyes) was “more potent intraocular pressure reducing activity”. Further, the “maximum decrease in intraocular pressure” value in data set [1] (0.5% aqueous solution, treated eyes, 2 hours after topical application) was found to be 6.2 mmHg. Further, the “significant drop in intraocular pressure until (time after topical application)” value in data set [1] (0.5% aqueous solution, treated eyes, from 30 min) is 4 h. Besides, in data set [1] (1.0% aqueous solution, treated eyes, 3 hours after instillation), the “maximum decrease in intraocular pressure” value amounted to 9.0 mmHg. In addition, in data set [1] (1.0% aqueous solution, treated eyes, sustained from 30 min after instillation), the “decrease in intraocular pressure sustained until (time after instillation)” value was determined as 6 h. Besides, the “change in intraocular pressure of the other, non-treated eyes” value in data set [1] (non-treated eyes (FIG. 3)) is “no significant change”. Moreover, the “dissolution of crystals after freezing” value in data set [2] was “did not allow the crystals to dissolve”. The “stability against heat and light” value in data set [3] was “stable”. In addition, in data set [4], the body weight measurement result is “no abnormalities” and the general conditions entry was “no abnormalities”. In addition, the “scanning electron microscope evaluation of corneal epithelial and endothelial cells” value in data set [5] is “no abnormalities”. Besides, in the data set with eyeball, the “optical microscope evaluation of a sagittal section of the eyeball” value is listed as “no abnormalities”. Also, the β-adrenergic blocking activity entry in the data set with β-adrenergic was “exhibit both α-adrenergic and β-adrenergic blocking activities”.
